Assay results from patent US4537772A, “Enhancing absorption of drugs from gastrointestinal tract using acylcarnitines” (Merck & Co., Inc., priority 1984, dated 1985).

Legend:
in vivo [1] = details: rat
Description: (§1) Effect of palmitoylcarnitine chloride on the rectal absorption of drug entities. Experiments were performed with rats wherein each animal received an aqueous microenema applied to the rectal cavity. […] Blood levels were monitored and the amount of drug absorbed calculated against intravenous administration and expressed as percent bioavailability.
(§2) Concentration dependence of palmitoylcarnitine effect on rectal absorption of sodium cefoxitin, a β-lactam antibiotic. […] Blood samples were collected and assayed for sodium cefoxitin. The amount of drug absorbed is expressed as percent bioavailability as compared to intravenous administration.
(§3) Effect of various carnitine esters on rectal absorption of sodium cefoxitin, a β-lactam antibiotic, and cyclo(N-Ala-Tyr-D-Trp-Lys-Val-Phe)acetate, a polypeptide. […] Blood samples were collected and sodium cefoxitin or cyclo(N-AlA-TyR-D-Trp-Lys-Val-Phe)acetate assayed. The amount of drug absorbed is expressed as percent bioavailability versus intravenous administration.
(§4) Importance of carnitine-palmitoyl ester linkage in absorption promoting effects on rectal sodium cefoxitin absorption. […] Blood was collected and sodium cefoxitin measured. Absorption of sodium cefoxitin is expressed as percent bioavailability versus intravenous administration.

in vivo [2] = details: rat; remark: listed apart in the source
Description: Effect of palmitoylcarnitine chloride on small intestinal absorption of polypeptides. Experiments were performed with rats wherein each animal received an aqueous solution applied to the duodenal region. […] Blood levels were monitored and the amount of polypeptide absorbed calculated against intravenous administration and expressed as percent bioavailability.

[3] = rat, in vivo
Description: as §1, §2, §3, §4

[4] = Rectal absorption of target drug from aqueous microenema, percent bioavailability versus intravenous administration; details: carnitine without acyl ester
Description: as §1, §2, §3, §4

| Sodium Cefoxitin Percent Bioavailability (mean ± SD) ([3]; pH 6) [%] | Percent Bioavailability (mean ± SD) Control [3] [%] | Percent Bioavailability (mean ± SD) with Palmitoylcarnitine-Cl [3] [%] | Compound | further results |
| --- | --- | --- | --- | --- |
|  |  |  | CC(C)[C@@H]1NC(=O)[C@H](CCCCN)NC(=O)[C@@H](Cc2c[nH]c3ccccc23)NC(=O)[C@H](Cc2ccc(O)cc2)NC(=O)[C@H](C)N(C)C(=O)[C@H](Cc2ccccc2)NC1=O [#-363,586, cyclo(N--Me--Ala--Tyr--DTrp--Lys--Val--Phe)acetate] | bioavailability (in vivo [1]; 0.1 mg, pH 6, Percent Bioavailability (mean ± SD) Cyclo(N-Ala-Tyr-D-Trp-Lys-Val-Phe)acetate): 7 ± 3.5%; bioavailability (in vivo [1]; Percent Bioavailability (mean ± SD) Control): 7 ± 3.5%; bioavailability (in vivo [1]; Percent Bioavailability (mean ± SD) with Palmitoylcarnitine-Cl): 100 ± 28.2%; bioavailability (in vivo [2]): 1% |
| 1 ± 0.6 |  |  | C[N+](C)(C)CC(O)CC(=O)[O-] (stereo not shown) [Carnitine] | absorption promoting effect of carnitine alone [4]: no effect |
|  | 0.5 ± 0.1 | 9 ± 0.6 | Nc1ccn([C@@H]2O[C@H](CO)[C@@H](O)[C@@H]2O)c(=O)n1 [Cytarabine] |  |
| 1 ± 0.8 |  |  | CCCCCCCCCCCCCCCC(=O)O [Palmitic acid] |  |
| 2 ± 1.1 | 2 ± 1.1 | 68 ± 7.2 | CO[C@@]1(NC(=O)Cc2cccs2)C(=O)N2C(C(=O)O)=C(COC(N)=O)CS[C@@H]21 [Sodium cefoxitin] | Percent Bioavailability (mean ± SD) Sodium Cefoxitin ([3]; pH 6): 2 ± 1.1%; Sodium Cefoxitin Percent Bioavailability mean ± SD ([3]; pH 6): 2 ± 1.1% |

| Compound | Sodium Cefoxitin Percent Bioavailability (mean ± SD) ([3]; pH 6) [%] | Percent Bioavailability (mean ± SD) Control [3] [%] | Percent Bioavailability (mean ± SD) with Palmitoylcarnitine-Cl [3] [%] | further results |
| --- | --- | --- | --- | --- |
| Cn1c(=O)c2[nH]cnc2n(C)c1=O [Theophylline] |  | 75 ± 3.3 | 75 ± 2.6 |  |
